Measured values: the NIST ThermoML archive (doi:10.1021/je100148h)
Numbers after ± are expanded uncertainties.

Test: xn = mol fraction of the nth substance listed
Conditions: Fluid (supercritical or subcritical phases), Burnett expansion method

CCC [propane] + O=C=O
Conditions	mass density [kg/m3]
360.01 K, 5054 kPa, x2 = 0.8017	90.4354 ± 0.017
360.01 K, 6218.2 kPa, x2 = 0.5158	141.203 ± 0.025
360.02 K, 178.29 kPa, x2 = 0.8017	2.6378 ± 0.02
360.02 K, 245.35 kPa, x2 = 0.8017	3.6378 ± 0.02
360.02 K, 337.31 kPa, x2 = 0.8017	5.0167 ± 0.019
360.02 K, 463.19 kPa, x2 = 0.8017	6.9183 ± 0.019
360.02 K, 634.97 kPa, x2 = 0.8017	9.5406 ± 0.018
360.02 K, 868.69 kPa, x2 = 0.8017	13.1566 ± 0.017
360.02 K, 3863.5 kPa, x2 = 0.8017	65.5911 ± 0.014
360.02 K, 6495 kPa, x2 = 0.8017	124.684 ± 0.019
370 K, 1659.1 kPa, x2 = 0.8017	25.0073 ± 0.017
370.01 K, 476.31 kPa, x2 = 0.8017	6.9151 ± 0.021
370.01 K, 653.23 kPa, x2 = 0.8017	9.5361 ± 0.02
370.01 K, 894.13 kPa, x2 = 0.8017	13.1504 ± 0.019
370.01 K, 1220.3 kPa, x2 = 0.8017	18.1344 ± 0.018
370.01 K, 2244.1 kPa, x2 = 0.8017	34.4826 ± 0.016
370.01 K, 3013.9 kPa, x2 = 0.8017	47.5475 ± 0.015
370.01 K, 5267 kPa, x2 = 0.8017	90.3909 ± 0.017
370.02 K, 205.87 kPa, x2 = 0.5158	2.9726 ± 0.011
370.02 K, 283.04 kPa, x2 = 0.5158	4.1011 ± 0.011
370.02 K, 346.79 kPa, x2 = 0.8017	5.0143 ± 0.021
370.02 K, 388.65 kPa, x2 = 0.5158	5.6577 ± 0.011
370.02 K, 992.19 kPa, x2 = 0.5158	14.8545 ± 0.011
370.02 K, 1345.8 kPa, x2 = 0.5158	20.4921 ± 0.011
370.02 K, 1815.3 kPa, x2 = 0.5158	28.2684 ± 0.012
370.02 K, 2426.9 kPa, x2 = 0.5158	38.9941 ± 0.012
370.02 K, 3206 kPa, x2 = 0.5158	53.7882 ± 0.013
370.02 K, 4009.4 kPa, x2 = 0.8017	65.5581 ± 0.014
370.02 K, 4171 kPa, x2 = 0.5158	74.1924 ± 0.016
370.02 K, 5317.2 kPa, x2 = 0.5158	102.331 ± 0.02
370.02 K, 6617 kPa, x2 = 0.5158	141.135 ± 0.022
370.02 K, 6810.4 kPa, x2 = 0.8017	124.62 ± 0.018
370.03 K, 532.61 kPa, x2 = 0.5158	7.8051 ± 0.011
370.03 K, 728.17 kPa, x2 = 0.5158	10.7675 ± 0.011
380.02 K, 188.21 kPa, x2 = 0.8017	2.6354 ± 0.022
380.02 K, 259.02 kPa, x2 = 0.8017	3.6346 ± 0.023
380.02 K, 399.41 kPa, x2 = 0.5158	5.6555 ± 0.011
380.02 K, 671.46 kPa, x2 = 0.8017	9.5319 ± 0.022
380.02 K, 919.55 kPa, x2 = 0.8017	13.1448 ± 0.021
380.02 K, 1255.9 kPa, x2 = 0.8017	18.1264 ± 0.02
380.02 K, 1386.9 kPa, x2 = 0.5158	20.4838 ± 0.011
380.02 K, 1709 kPa, x2 = 0.8017	24.9958 ± 0.019
380.02 K, 1873.6 kPa, x2 = 0.5158	28.257 ± 0.012
380.02 K, 3114.5 kPa, x2 = 0.8017	47.5261 ± 0.016
380.02 K, 3326.5 kPa, x2 = 0.5158	53.7656 ± 0.013
380.02 K, 4154.3 kPa, x2 = 0.8017	65.5297 ± 0.015
380.02 K, 4347.6 kPa, x2 = 0.5158	74.1614 ± 0.015
380.02 K, 5478.5 kPa, x2 = 0.8017	90.3475 ± 0.018
380.02 K, 5579.3 kPa, x2 = 0.5158	102.287 ± 0.019
380.02 K, 7122.7 kPa, x2 = 0.8017	124.564 ± 0.018
380.03 K, 356.25 kPa, x2 = 0.8017	5.0122 ± 0.023
380.03 K, 489.43 kPa, x2 = 0.8017	6.9121 ± 0.022
380.03 K, 547.58 kPa, x2 = 0.5158	7.802 ± 0.011
380.03 K, 749.01 kPa, x2 = 0.5158	10.7633 ± 0.011
380.03 K, 1021.4 kPa, x2 = 0.5158	14.8485 ± 0.011
380.03 K, 2314.7 kPa, x2 = 0.8017	34.4669 ± 0.017
380.03 K, 2510.4 kPa, x2 = 0.5158	38.978 ± 0.012
380.03 K, 7010.3 kPa, x2 = 0.5158	141.07 ± 0.021
380.04 K, 211.45 kPa, x2 = 0.5158	2.9713 ± 0.011
380.04 K, 290.81 kPa, x2 = 0.5158	4.0993 ± 0.011
390.02 K, 2384.9 kPa, x2 = 0.8017	34.4507 ± 0.019
390.02 K, 3446.3 kPa, x2 = 0.5158	53.7433 ± 0.013
390.02 K, 5838.5 kPa, x2 = 0.5158	102.241 ± 0.018
390.03 K, 193.15 kPa, x2 = 0.8017	2.6342 ± 0.025
390.03 K, 217.06 kPa, x2 = 0.5158	2.9702 ± 0.011
390.03 K, 265.87 kPa, x2 = 0.8017	3.6329 ± 0.025
390.03 K, 365.64 kPa, x2 = 0.8017	5.0098 ± 0.025
390.03 K, 410.13 kPa, x2 = 0.5158	5.6532 ± 0.011
390.03 K, 502.51 kPa, x2 = 0.8017	6.9089 ± 0.024
390.03 K, 689.66 kPa, x2 = 0.8017	9.5275 ± 0.024
390.03 K, 769.82 kPa, x2 = 0.5158	10.759 ± 0.011
390.03 K, 944.86 kPa, x2 = 0.8017	13.1385 ± 0.023
390.03 K, 1050.5 kPa, x2 = 0.5158	14.8425 ± 0.011
390.03 K, 1428 kPa, x2 = 0.5158	20.475 ± 0.011
390.03 K, 1758.8 kPa, x2 = 0.8017	24.9833 ± 0.021
390.03 K, 1931.7 kPa, x2 = 0.5158	28.245 ± 0.012
390.03 K, 2593.4 kPa, x2 = 0.5158	38.9614 ± 0.012
390.03 K, 3214.7 kPa, x2 = 0.8017	47.5025 ± 0.017
390.03 K, 4298.5 kPa, x2 = 0.8017	65.4967 ± 0.016
390.03 K, 4522.9 kPa, x2 = 0.5158	74.1282 ± 0.014
390.03 K, 5688.3 kPa, x2 = 0.8017	90.3013 ± 0.017
390.03 K, 7399 kPa, x2 = 0.5158	141.004 ± 0.019
390.03 K, 7432.4 kPa, x2 = 0.8017	124.497 ± 0.017
390.04 K, 298.57 kPa, x2 = 0.5158	4.0977 ± 0.011
390.04 K, 562.52 kPa, x2 = 0.5158	7.7989 ± 0.011
390.04 K, 1291.3 kPa, x2 = 0.8017	18.1174 ± 0.022
400.02 K, 970.17 kPa, x2 = 0.8017	13.1371 ± 0.024
400.03 K, 272.65 kPa, x2 = 0.8017	3.6324 ± 0.027
400.03 K, 375.15 kPa, x2 = 0.8017	5.0093 ± 0.026
400.03 K, 515.7 kPa, x2 = 0.8017	6.908 ± 0.026
400.03 K, 577.33 kPa, x2 = 0.5158	7.7944 ± 0.011
400.03 K, 707.92 kPa, x2 = 0.8017	9.5262 ± 0.025
400.03 K, 790.53 kPa, x2 = 0.5158	10.7528 ± 0.011
400.03 K, 1079.5 kPa, x2 = 0.5158	14.8335 ± 0.011
400.03 K, 1326.5 kPa, x2 = 0.8017	18.1154 ± 0.023
400.03 K, 1468.7 kPa, x2 = 0.5158	20.4633 ± 0.011
400.03 K, 1808.4 kPa, x2 = 0.8017	24.9801 ± 0.022
400.03 K, 2454.9 kPa, x2 = 0.8017	34.4454 ± 0.021
400.03 K, 3565.3 kPa, x2 = 0.5158	53.7096 ± 0.013
400.03 K, 6095.5 kPa, x2 = 0.5158	102.176 ± 0.015
400.03 K, 7739.4 kPa, x2 = 0.8017	124.476 ± 0.017
400.03 K, 7784.2 kPa, x2 = 0.5158	140.912 ± 0.018
400.04 K, 198.07 kPa, x2 = 0.8017	2.6338 ± 0.027
400.04 K, 222.65 kPa, x2 = 0.5158	2.9684 ± 0.011
400.04 K, 306.29 kPa, x2 = 0.5158	4.0953 ± 0.011
400.04 K, 420.82 kPa, x2 = 0.5158	5.6498 ± 0.011
400.04 K, 1989.5 kPa, x2 = 0.5158	28.2277 ± 0.012
400.04 K, 2676 kPa, x2 = 0.5158	38.9372 ± 0.012
400.04 K, 3314.3 kPa, x2 = 0.8017	47.4952 ± 0.019
400.04 K, 4441.8 kPa, x2 = 0.8017	65.4859 ± 0.017
400.04 K, 4696.7 kPa, x2 = 0.5158	74.0811 ± 0.013
400.04 K, 5896.6 kPa, x2 = 0.8017	90.2853 ± 0.016
